The record followed here is patent US12630523B2, “Isoquinoline derivatives for use as antiviral and antitumour agents” (priority 2021, dated 2026).

As a reminder, the EC50 is the concentration needed to bring the measured effect to its halfway point. Low readings indicate a more potent agent, high ones a less potent agent.

What all share (format): cell-based
Assay [1] relates to peripheral blood mononuclear cells (PBMC). In words: Monolayer SRB assay, PBMC. The protocol:
(§1) Various cell culture cells grown as monolayers are harvested from exponential growing cultures after treatment with various OC compounds at different concentrations. For this depending on the cell line, 10.000 to 30.000 cells were plated in 96-well flat-bottom microtiter plates. After a 24 h recovery period to allow cells to resume exponential growth, supernatants are discarded and 100 μl of culture medium (eight control wells/plate) or culture medium with the test compound are added by a liquid handling robotic system (Microlab® Starlet, Hamilton) and treatment continued for 72 hrs. Compounds are applied at 9 concentrations and eight wells/concentration). At least three independent experiments are performed. For SRB staining, cells are fixed with SRB01 (Tab. 5) for 1 h at 4° C. […] Optical density is assessed using a plate-reader (Sunrise, Tecan©) at 540 nm.
(§2) Concentrations required for half maximal response of the compound for cell growth inhibition (EC50) is calculated by non-linear regression (log[conc. of inhibitor] versus response (% T/C)) using the analysis software GraphPad Prism®, Prism 5 for windows, version 5.01 (GraphPad Software Inc., CA).
(The SRB assay estimates cell density from bound dye.)

The next assay has as its system SiHa (ATCC HTB-35). In words: Monolayer SRB assay, SiHa. Particulars: Homo sapiens, 72 hrs, HPV16. The protocol: as §1, §2
The test system of another assay is Hela (ATCC CCL-2). In words: Monolayer SRB assay, Hela. The following applies: Homo sapiens, 72 hrs, HPV18. As for the experimental part:
as §1, §2

Take `Cc1ccc(CN2C(=O)c3ccccc3[C@H](C(=O)Nc3cccc(N4CCN(C)CC4)c3)[C@@H]2c2ccc(C(F)(F)F)cc2)cc1` [OC246, N-[3-(4-methylpiperazin-1-yl)phenyl]-2-[(4-methylphenyl)methyl]-1-oxo-3-[4-(trifluoromethyl)phenyl]-1,2,3,4-tetrahydroisoquinoline-4-carboxamide]: the EC50 is more than 100 µM in assay [1], 3.53 µM with SiHa (ATCC HTB-35) and 2.68 µM with Hela (ATCC CCL-2).
